pIC50: −log10 of the molar value.
Experiments:
[1] = target: T1, human full length PIK3KA Wild-type (p110α/p85α complex) (Homo sapiens, UniProt P42336); assay: PI3K-alpha kinase (PIK3CA) biochemical activity, wild-type, ADP-Glo; conditions: PI3K-α (PIK3CA) biochemical
T1 construct: Recombinant, catalytically active human full length PIK3KA Wild-type and H1047R mutant were purchased as 1:1 complex; 6xHis (N); purchased EMD Millipore Sigma 14-602M
Description: (§1) PI3K-Alpha Kinase (PIK3CA) Activity, Wild-Type and H1047R Mutant and Determining IC50 Values for Inhibitors
(§2) Recombinant, catalytically active human full length PIK3KA Wild-type and H1047R mutant were purchased as 1:1 complex of N-terminal 6× his tagged p110α (catalytic) and untagged p85α (regulatory subunit) from EMD Millipore Sigma (cat. no. 14-602M and 14-792M, respectively). PIP2diC8 (Avanti Polar Lipids Inc., cat. no. 850185) or Soy PI (Avanti Polar Lipids Inc., cat. No. 840044P) was used as lipid substrate. PIP2diC8 or PI lyophilized powder was dissolved in milliQ water to a concentration of 1 mM just before use. 10 mM stock compounds in DMSO were serially diluted 1:3 to generate a 10-point curve and plated using an acoustic liquid handler system (Echo 550 series instrument, Labcyte). A 10× intermediate compound plate (200 uM starting compound concentration and 10% DMSO) was prepared before starting the reaction. A typical reaction mixture (50 uL) comprised 40 mM HEPES buffer, pH 7.4, 25 mM MgCl2, 0.01% v/v triton-X-100, 1% v/v DMSO, 20 mM NaCl, 1-5 nM WT or H1047R PI3K protein, 20 uM ATP, and 50 uM PIP2diC8 or Soy PI. 1% DMSO buffer alone without test compound was employed as MAX control (full activity in the absence of any inhibitor), and no enzyme control was used to determine the level of background Adenosine 5′-diphosphate (ADP) (MIN control). First, Wild-type (WT) and H1047R mutant protein in kinase buffer with all components except ATP were incubated with or without compound at 27° C. for 1 h. After the pre-incubation, the reaction was initiated by the addition of 20 uL of 50 uM ATP (20 uM final concentration). The reaction was allowed to proceed until about 10% conversion of ATP (2 uM ADP) at 27° C. After that time, 5 uL of reaction was mixed with 5 uL of ADP-Kinase Glo Reagent (ADP-Glo Kinase assay kit, Promega cat. no. V9102) supplemented with MgCl2 10 mM to stop the reaction and deplete the remaining ATP for 40 min at room temperature. Then, 10 uL of Kinase Detection Reagent (ADP-Glo Kinase assay kit, Promega cat. no. V9102) was added to simultaneously convert ADP to ATP and allow the newly synthesized ATP to be measured using a luciferase/luciferin reaction. After 30 min at room temperature the light generated was measured using a luminometer (EnVision plate reader, Perkin Elmer). Process data through Genedata-Screener tool. Relative IC50 values are determined using luminescence units by calculating percent inhibition with respect to on-plate “MIN” and “MAX” controls. Data was analyzed using a 4-parameter nonlinear logistic equation (four-parameter logistic concentration-response curve): Y=bot+[(top−bot)/1+(x/IC50)slope] where Y=% inhibition, X=concentration yielding y % inhibition, Bottom=minimum value of y attained by curve, Top=maximum value of y attained by curve and Slope=steepness of curve at IC50. % Inh=[(median Max−x/median Max−median Min)]·100 IC50: concentration of compound that reduces a given response (ligand binding, enzyme response) by 50%. IC50 relative: concentration giving half the compound's maximum response.
(§3) For IC50 values shown in Table A, “A” means IC50<0.5 μM; “B” means IC50 ranging between 0.5 μM and 1.0 μM; “C” means IC50 ranging between 1 μM and 5 μM; “D” means IC50 ranging between 5 μM and 10 μM; “E” means IC50>10 μM.

[2] = target: T2, human full length PIK3KA H1047R mutant (p110α/p85α complex) (Homo sapiens, UniProt P42336, H1047R); assay: PI3K-alpha kinase (PIK3CA) biochemical activity, H1047R mutant, ADP-Glo; conditions: for pIC50: PI3K-α (PIK3CA) biochemical, H1047R mutant
T2 construct: Recombinant, catalytically active human full length PIK3KA Wild-type and H1047R mutant were purchased as 1:1 complex; 6xHis (N); purchased EMD Millipore Sigma 14-792M
T2 sequence (P42336 whole entry H1047R): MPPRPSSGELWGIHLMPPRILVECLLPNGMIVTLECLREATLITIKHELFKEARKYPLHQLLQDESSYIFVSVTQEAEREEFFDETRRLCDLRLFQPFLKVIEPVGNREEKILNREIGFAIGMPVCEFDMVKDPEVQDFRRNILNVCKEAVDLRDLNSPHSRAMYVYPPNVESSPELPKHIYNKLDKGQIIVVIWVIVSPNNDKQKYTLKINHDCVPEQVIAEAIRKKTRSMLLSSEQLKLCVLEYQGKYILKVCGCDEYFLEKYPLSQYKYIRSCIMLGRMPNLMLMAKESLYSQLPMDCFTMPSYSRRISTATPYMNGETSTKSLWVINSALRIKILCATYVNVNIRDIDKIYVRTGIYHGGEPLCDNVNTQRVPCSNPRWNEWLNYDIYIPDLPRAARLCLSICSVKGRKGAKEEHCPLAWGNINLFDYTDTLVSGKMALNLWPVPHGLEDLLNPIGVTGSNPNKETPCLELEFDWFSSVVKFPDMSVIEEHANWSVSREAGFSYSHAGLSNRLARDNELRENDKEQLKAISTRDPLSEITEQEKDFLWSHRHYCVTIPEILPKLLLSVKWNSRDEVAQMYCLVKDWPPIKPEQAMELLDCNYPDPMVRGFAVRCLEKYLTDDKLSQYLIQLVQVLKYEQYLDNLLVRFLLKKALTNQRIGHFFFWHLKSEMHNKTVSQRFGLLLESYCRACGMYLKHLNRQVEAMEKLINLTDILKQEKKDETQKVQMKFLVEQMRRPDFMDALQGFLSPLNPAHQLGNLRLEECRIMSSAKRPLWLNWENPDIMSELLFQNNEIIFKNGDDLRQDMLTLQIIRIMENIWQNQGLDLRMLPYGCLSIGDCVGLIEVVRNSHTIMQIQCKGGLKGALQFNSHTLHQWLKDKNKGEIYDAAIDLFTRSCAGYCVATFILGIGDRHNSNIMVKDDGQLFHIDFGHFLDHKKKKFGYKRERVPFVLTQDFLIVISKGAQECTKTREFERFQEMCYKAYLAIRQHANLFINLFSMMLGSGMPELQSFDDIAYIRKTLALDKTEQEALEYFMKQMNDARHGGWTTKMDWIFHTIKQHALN
T2 sequence (P27986 whole entry partner): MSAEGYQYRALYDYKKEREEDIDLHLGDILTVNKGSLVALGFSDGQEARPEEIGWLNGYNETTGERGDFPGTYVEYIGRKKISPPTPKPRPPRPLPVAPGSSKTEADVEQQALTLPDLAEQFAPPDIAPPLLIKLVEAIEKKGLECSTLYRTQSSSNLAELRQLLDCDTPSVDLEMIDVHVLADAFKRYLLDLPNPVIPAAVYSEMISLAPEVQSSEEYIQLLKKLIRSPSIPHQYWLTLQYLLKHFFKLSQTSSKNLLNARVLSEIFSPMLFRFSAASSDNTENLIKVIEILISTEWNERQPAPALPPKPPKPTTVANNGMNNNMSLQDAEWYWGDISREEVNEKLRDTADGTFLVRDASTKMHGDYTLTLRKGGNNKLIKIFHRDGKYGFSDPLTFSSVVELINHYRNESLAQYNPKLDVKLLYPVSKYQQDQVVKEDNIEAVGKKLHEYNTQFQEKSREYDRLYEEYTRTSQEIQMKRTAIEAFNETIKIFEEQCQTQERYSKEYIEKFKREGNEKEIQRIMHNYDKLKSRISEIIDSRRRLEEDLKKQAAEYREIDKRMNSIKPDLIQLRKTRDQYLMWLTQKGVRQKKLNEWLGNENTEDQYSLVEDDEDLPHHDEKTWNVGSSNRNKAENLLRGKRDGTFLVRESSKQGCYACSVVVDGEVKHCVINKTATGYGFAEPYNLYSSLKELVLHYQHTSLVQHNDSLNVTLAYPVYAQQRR
Description: as §1, §2, §3

[3] = PIP2diC8 lipid substrate (footnote 1)

Row | pIC50 ([1]; Soy PI lipid substrate) | pIC50 ([2]; Soy PI lipid substrate) | pIC50 [1, 3] | pIC50 [2, 3] | SMILES | IC50 WT/IC50 H1047R ([2]; ratio of biochemical IC50 wild-type to H1047R mutant, Soy PI lipid substrate)
1 | 5.30 to 6.00 | > 6.30 | – | – | Cc1cc([C@@H](C)Nc2ccccc2C(=O)O)c2oc(-c3ccccc3F)cc(=O)c2c1 [Example 11, 2-[[(1R)-1-[2-(2-Fluorophenyl)-6-methyl-4-oxo-chromen-8-yl]ethyl]amino]benzoic acid] | –
2 | 5.00 to 5.30 | 6.00 to 6.30 | – | – | Cc1cc(C(C)Nc2ccccc2C(=O)O)c2oc(-c3ccc(C4(C)CC4)cc3)cc(=O)c2c1 (stereo not drawn) [Example 12, 2-[1-[6-Methyl-2-[4-(1-methylcyclopropyl)-phenyl]-4-oxo-chromen-8-yl]ethylamino]benzoic acid 2,2,2-trifluoroacetic acid] | –
3 | 5.30 to 6.00 | > 6.30 | – | – | Cc1cc(C(C)Nc2ccccc2C(=O)O)c2oc(-c3cccc(-c4cnn(C)c4)c3)cc(=O)c2c1.O=C(O)C(F)(F)F (stereo not drawn) [Example 13, 2-[1-[6-Methyl-2-[3-(1-methylpyrazol-4-yl)phenyl]-4-oxo-chromen-8-yl]ethylamino]benzoic acid 2,2,2-trifluoroacetic acid] | *For Example 13, IC50 WT/IC50 H1047R = 7.7
4 | – | – | 6.00 to 6.30 | > 6.30 | Cc1cc([C@@H](C)Nc2ccccc2C(=O)O)c2oc(-c3cccc(C#N)c3)cc(=O)c2c1 [Example 16, 2-[[(1R)-1-[2-(3-Cyanophenyl)-6-methyl-4-oxo-chromen-8-yl]ethyl]amino]benzoic acid] | –
5 | – | – | > 6.30 | > 6.30 | Cc1cc([C@@H](C)Nc2ccccc2C(=O)O)c2oc(-c3ccc(C#N)cc3)cc(=O)c2c1 [Example 17, 2-[[(1R)-1-[2-(4-Cyanophenyl)-6-methyl-4-oxo-chromen-8-yl]ethyl]amino]benzoic acid] | –
6 | – | – | > 6.30 | > 6.30 | Cc1cc([C@@H](C)Nc2ccccc2C(=O)O)c2oc(-c3cccc(F)c3)cc(=O)c2c1 [Example 18, 2-[[(1R)-1-[2-(3-Fluorophenyl)-6-methyl-4-oxo-chromen-8-yl]ethyl]amino]benzoic acid] | –
7 | – | – | 5.30 to 6.00 | > 6.30 | Cc1cc([C@@H](C)Nc2ccccc2C(=O)O)c2oc(-c3ccc(F)cc3)cc(=O)c2c1 [Example 19, 2-[[(1R)-1-[2-(4-Fluorophenyl)-6-methyl-4-oxo-chromen-8-yl]ethyl]amino]benzoic acid] | –
8 | – | – | > 6.30 | > 6.30 | Cc1cc([C@@H](C)Nc2ccc(F)cc2C(=O)O)c2oc(-c3ccccc3)cc(=O)c2c1 [Example 20, 5-Fluoro-2-[[(1R)-1-(6-methyl-4-oxo-2-plienyl-chromen-8-yl)ethyl]amino]benzoic acid] | –
9 | – | – | > 6.30 | > 6.30 | Cc1cc([C@@H](C)Nc2ccccc2C(=O)O)c2oc(-c3ccccc3)cc(=O)c2c1 [Example 22, 2-[[(1R)-1-(6-Methyl-4-oxo-2-phenyl-chromen-8-yl)ethyl]amino]benzoic acid] | –
10 | 5.00 to 5.30 | > 6.30 | – | – | Cc1cc(C(C)Nc2sc(C)nc2C(=O)O)c2oc(-c3ccccc3)cc(=O)c2c1 (stereo not drawn) [Example 23, 2-Methyl-5-[1-(6-methyl-4-oxo-2-phenyl-chromen-8-yl)ethylamino]-thiazole-4-carboxylic acid 2,2,2-trifluoroacetic acid] | –
11 | 5.30 to 6.00 | > 6.30 | – | – | C[C@@H](Nc1ccccc1C(=O)O)c1cc(F)cc2c(=O)cc(-c3ccccc3)oc12 [Example 24, 2-[[(1R)-1-(6-Fluoro-4-oxo-2-phenyl-chromen-8-yl)ethyl]amino]benzoic acid] | –
12 | 5.30 to 6.00 | > 6.30 | – | – | Cc1cc([C@@H](C)Nc2ccc(C(F)(F)F)nc2C(=O)O)c2oc(-c3ccccc3)cc(=O)c2c1 [Example 27, 3-[[(1R)-1-(6-Methyl-4-oxo-2-phenyl-chromen-8-yl)ethyl]amino]-6-(trifluoromethyl)-pyridine-2-carboxylic acid] | –
13 | < 5.00 | > 6.30 | – | – | Cc1cc([C@@H](C)Nc2ccccc2C(=O)O)c2oc(-c3ccccc3C#N)c(C)c(=O)c2c1 [Example 34, 2-[[(1R)-1-[2-(2-Cyanophenyl)-3,6-dimethyl-4-oxo-chromen-8-yl]ethyl]amino]benzoic acid] | –
14 | < 5.00 | > 6.30 | – | – | Cc1cc(C(C)Nc2ccccc2C(=O)O)c2oc(-c3ccc(N4CCCC4)cc3)cc(=O)c2c1 (stereo not drawn) [Example 45, 2-[1-[6-Methyl-4-oxo-2-(4-pyrrolidin-1-ylphenyl)chromen-8-yl]ethylamino]benzoic acid 2,2,2-trifluoroacetic acid] | –
15 | 5.00 to 5.30 | > 6.30 | – | – | Cc1cc([C@@H](C)Nc2ccc(C)nc2C(=O)O)c2oc(-c3ccccc3)cc(=O)c2c1 [Example 46, 6-Methyl-3-[[(1R)-1-(6-methyl-4-oxo-2-phenyl-chromen-8-yl)ethyl]amino]-pyridine-2-carboxylic acid] | –
16 | 5.30 to 6.00 | > 6.30 | – | – | Cc1cc([C@@H](C)Nc2ccccc2C(=O)O)c2oc(-c3ccc(C#N)cc3F)cc(=O)c2c1 [Example 51, 2-[[(1R)-1-[2-(4-Cyano-2-fluoro-phenyl)-6-methyl-4-oxo-chromen-8-yl]ethyl]amino]benzoic acid 2,2,2-trifluoroacetic acid] | –
17 | 5.30 to 6.00 | > 6.30 | – | – | Cc1cc([C@@H](C)Nc2ccccc2C(=O)O)c2oc(-c3ccc(C#N)c(F)c3)cc(=O)c2c1 [Example 56, 2-[[(1R)-1-[2-(4-Cyano-3-fluoro-phenyl)-6-methyl-4-oxo-chromen-8-yl]ethyl]amino]benzoic acid 2,2,2-trifluoroacetic acid] | –
18 | 5.30 to 6.00 | > 6.30 | – | – | Cc1cc([C@@H](C)Nc2ccccc2C(=O)O)c2oc(-c3ccc(F)cc3F)cc(=O)c2c1 [Example 57, 2-[[(1R)-1-[2-(2,4-Difluorophenyl)-6-methyl-4-oxo-chromen-8-yl]ethyl]amino]benzoic acid 2,2,2-trifluoroacetic acid] | –
19 | < 5.00 | > 6.30 | – | – | CC(Nc1ccccc1C(=O)O)c1cc(F)c(F)c2c(=O)cc(-c3ccccc3)oc12 (stereo not drawn) [Example 64, 2-[1-(5,6-Difluoro-4-oxo-2-phenyl-chromen-8-yl)ethylamino]benzoic acid 2,2,2-trifluoroacetic acid] | –
20 | < 5.00 | < 5.00 | – | – | Cc1cc([C@@H](C)Nc2c(Cl)ccc(F)c2C(=O)O)c2oc(-c3ccccc3)c(C)c(=O)c2c1 [Example 65, 3-Chloro-2-[[(1R)-1-(3,6-dimethyl-4-oxo-2-phenyl-chromen-8-yl)ethyl]amino]-6-fluoro-benzoic acid] | –
21 | 5.30 to 6.00 | > 6.30 | – | – | Cc1cc([C@@H](C)Nc2ccccc2C(=O)O)c2oc(-c3cccc(C(F)F)c3)cc(=O)c2c1 [Example 71, 2-[[(1R)-1-[2-[3-(Difluoromethyl)phenyl]-6-methyl-4-oxo-chromen-8-yl]ethyl]amino]benzoic acid] | –
22 | 5.30 to 6.00 | 5.30 to 6.00 | – | – | Cc1c(-c2ccccc2)oc2c([C@@H](C)Nc3ccccc3C(=O)O)cc(F)cc2c1=O [Example 72, 2-[[(1R)-1-(6-Fluoro-3-methyl-4-oxo-2-phenyl-chromen-8-yl)ethyl]amino]benzoic acid 2,2,2-trifluoroacetic acid] | –
